# Test results: paper PMC11233931, “Remodeling tumor‐associated macrophage for anti‐cancer effects by rational design of irreversible inhibition of mitogen‐activated protein kinase‐activated protein kinase 2” (MedComm, 2024)
# Read-outs that look alike come from different tables or passages of the source.
# What was measured:
# Test in all cases: Eurofins kinase selectivity profile against 380 other human recombinant kinases (Table S2)
# Format in all cases: biochemical
# [1] = molecular target: T1, 380 human recombinant protein kinases (Homo sapiens, UniProt P04626); conditions: ErbB2(h), read-out: Inhibition rate
# T1 construct: purchased Eurofins (Celle Lévescault)
# Outline: (§1)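 Commercial selectivity screen of the test compound against a panel of 380 human recombinant protein kinases, run by an outside contractor at several compound concentrations to check whether its potency was specific for MK2.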
# [2] = molecular target: T2, 380 human recombinant protein kinases (Homo sapiens, UniProt O94804); conditions: LOK(h), read-out: Inhibition rate
# T2 construct: purchased Eurofins (Celle Lévescault)
# Outline: as §1
# [3] = molecular target: T3, 380 human recombinant protein kinases (Homo sapiens, UniProt Q86UX6); conditions: STK32C(h), read-out: Inhibition rate (%)
# T3 construct: purchased Eurofins (Celle Lévescault)
# Outline: as §1
# [4] = molecular target: T4, 380 human recombinant protein kinases (Homo sapiens, UniProt Q9Y2K2); conditions: SIK3(h), read-out: Inhibition rate (%)
# T4 construct: purchased Eurofins (Celle Lévescault)
# Outline: as §1
# [5] = molecular target: T5, 380 human recombinant protein kinases (Homo sapiens, UniProt P37173); conditions: TGFBR2(h), read-out: Inhibition rate (%)
# T5 construct: purchased Eurofins (Celle Lévescault)
# Outline: as §1
# [6] = molecular target: T6, 380 human recombinant protein kinases (Homo sapiens, UniProt Q9Y2U5); conditions: MEKK2(h), read-out: Inhibition rate
# T6 construct: purchased Eurofins (Celle Lévescault)
# T6 sequence (Q9Y2U5 1-619): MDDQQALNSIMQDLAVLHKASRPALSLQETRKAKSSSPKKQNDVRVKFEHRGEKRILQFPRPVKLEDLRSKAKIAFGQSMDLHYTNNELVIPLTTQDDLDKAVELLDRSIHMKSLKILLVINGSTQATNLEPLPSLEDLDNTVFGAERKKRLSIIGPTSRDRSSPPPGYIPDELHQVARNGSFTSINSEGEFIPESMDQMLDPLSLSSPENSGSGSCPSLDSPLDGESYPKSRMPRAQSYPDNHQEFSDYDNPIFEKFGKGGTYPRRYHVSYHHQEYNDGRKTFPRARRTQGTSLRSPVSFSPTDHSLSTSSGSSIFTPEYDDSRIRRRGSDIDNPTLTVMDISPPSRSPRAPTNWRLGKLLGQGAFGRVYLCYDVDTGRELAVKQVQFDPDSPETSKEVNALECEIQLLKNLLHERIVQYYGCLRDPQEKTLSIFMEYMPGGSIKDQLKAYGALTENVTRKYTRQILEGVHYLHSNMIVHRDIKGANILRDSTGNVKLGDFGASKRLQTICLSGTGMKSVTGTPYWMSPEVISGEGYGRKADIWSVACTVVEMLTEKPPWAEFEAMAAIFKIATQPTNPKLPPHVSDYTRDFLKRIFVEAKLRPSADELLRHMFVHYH
# Outline: as §1
# [7] = molecular target: T7, 380 human recombinant protein kinases (Homo sapiens, UniProt Q86V86); conditions: Pim-3(h), read-out: Inhibition rate
# T7 construct: purchased Eurofins (Celle Lévescault)
# Outline: as §1
# [8] = molecular target: T8, 380 human recombinant protein kinases (Homo sapiens, UniProt P42336); conditions: read-out: Inhibition rate (%); for inhibition at 0.01 µM: 10 nM; for inhibition at 0.1 µM: 100 nM; for inhibition at 1 µM: 1000 nM
# T8 construct: purchased Eurofins (Celle Lévescault)
# Outline: as §1
# [9] = molecular target: T9, 380 human recombinant protein kinases (Homo sapiens, UniProt Q9UKI8); conditions: TLK1(h), read-out: Inhibition rate (%)
# T9 construct: purchased Eurofins (Celle Lévescault)
# T9 sequence (Q9UKI8 1-766): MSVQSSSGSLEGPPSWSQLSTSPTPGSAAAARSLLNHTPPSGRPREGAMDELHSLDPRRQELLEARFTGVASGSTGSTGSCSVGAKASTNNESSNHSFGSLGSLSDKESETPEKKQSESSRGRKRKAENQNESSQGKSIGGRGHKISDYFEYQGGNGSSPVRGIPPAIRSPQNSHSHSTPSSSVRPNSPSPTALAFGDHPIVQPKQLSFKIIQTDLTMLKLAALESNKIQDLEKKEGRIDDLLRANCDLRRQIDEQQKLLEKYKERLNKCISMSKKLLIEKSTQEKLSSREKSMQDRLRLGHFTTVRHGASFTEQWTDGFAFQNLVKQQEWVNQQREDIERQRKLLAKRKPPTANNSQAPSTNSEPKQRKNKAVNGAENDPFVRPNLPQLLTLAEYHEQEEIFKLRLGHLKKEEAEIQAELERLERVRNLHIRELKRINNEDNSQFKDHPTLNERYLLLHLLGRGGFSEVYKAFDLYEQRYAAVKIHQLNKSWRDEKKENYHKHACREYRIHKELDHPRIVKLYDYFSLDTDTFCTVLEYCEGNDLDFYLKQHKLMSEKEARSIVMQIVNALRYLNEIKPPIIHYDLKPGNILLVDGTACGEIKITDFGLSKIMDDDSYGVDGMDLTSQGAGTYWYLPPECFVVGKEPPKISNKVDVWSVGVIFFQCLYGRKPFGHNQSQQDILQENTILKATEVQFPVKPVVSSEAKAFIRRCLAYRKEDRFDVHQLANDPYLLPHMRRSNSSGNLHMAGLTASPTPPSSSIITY
# Outline: as §1
# T5 sequence (P37173 23-567): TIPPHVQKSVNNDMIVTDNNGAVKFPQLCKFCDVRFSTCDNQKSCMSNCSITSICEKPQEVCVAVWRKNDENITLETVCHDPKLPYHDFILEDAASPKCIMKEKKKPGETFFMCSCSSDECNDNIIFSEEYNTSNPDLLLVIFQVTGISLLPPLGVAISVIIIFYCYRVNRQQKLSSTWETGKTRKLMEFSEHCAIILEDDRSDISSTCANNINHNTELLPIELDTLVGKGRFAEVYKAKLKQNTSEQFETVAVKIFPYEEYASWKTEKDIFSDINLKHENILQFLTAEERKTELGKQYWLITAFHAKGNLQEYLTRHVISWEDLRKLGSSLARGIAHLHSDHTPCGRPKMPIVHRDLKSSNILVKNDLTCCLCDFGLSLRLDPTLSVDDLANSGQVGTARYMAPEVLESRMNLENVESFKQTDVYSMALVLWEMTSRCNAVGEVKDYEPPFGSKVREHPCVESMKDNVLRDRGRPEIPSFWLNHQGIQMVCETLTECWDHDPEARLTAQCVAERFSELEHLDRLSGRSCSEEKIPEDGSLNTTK
# T4 sequence (Q9Y2K2 whole entry): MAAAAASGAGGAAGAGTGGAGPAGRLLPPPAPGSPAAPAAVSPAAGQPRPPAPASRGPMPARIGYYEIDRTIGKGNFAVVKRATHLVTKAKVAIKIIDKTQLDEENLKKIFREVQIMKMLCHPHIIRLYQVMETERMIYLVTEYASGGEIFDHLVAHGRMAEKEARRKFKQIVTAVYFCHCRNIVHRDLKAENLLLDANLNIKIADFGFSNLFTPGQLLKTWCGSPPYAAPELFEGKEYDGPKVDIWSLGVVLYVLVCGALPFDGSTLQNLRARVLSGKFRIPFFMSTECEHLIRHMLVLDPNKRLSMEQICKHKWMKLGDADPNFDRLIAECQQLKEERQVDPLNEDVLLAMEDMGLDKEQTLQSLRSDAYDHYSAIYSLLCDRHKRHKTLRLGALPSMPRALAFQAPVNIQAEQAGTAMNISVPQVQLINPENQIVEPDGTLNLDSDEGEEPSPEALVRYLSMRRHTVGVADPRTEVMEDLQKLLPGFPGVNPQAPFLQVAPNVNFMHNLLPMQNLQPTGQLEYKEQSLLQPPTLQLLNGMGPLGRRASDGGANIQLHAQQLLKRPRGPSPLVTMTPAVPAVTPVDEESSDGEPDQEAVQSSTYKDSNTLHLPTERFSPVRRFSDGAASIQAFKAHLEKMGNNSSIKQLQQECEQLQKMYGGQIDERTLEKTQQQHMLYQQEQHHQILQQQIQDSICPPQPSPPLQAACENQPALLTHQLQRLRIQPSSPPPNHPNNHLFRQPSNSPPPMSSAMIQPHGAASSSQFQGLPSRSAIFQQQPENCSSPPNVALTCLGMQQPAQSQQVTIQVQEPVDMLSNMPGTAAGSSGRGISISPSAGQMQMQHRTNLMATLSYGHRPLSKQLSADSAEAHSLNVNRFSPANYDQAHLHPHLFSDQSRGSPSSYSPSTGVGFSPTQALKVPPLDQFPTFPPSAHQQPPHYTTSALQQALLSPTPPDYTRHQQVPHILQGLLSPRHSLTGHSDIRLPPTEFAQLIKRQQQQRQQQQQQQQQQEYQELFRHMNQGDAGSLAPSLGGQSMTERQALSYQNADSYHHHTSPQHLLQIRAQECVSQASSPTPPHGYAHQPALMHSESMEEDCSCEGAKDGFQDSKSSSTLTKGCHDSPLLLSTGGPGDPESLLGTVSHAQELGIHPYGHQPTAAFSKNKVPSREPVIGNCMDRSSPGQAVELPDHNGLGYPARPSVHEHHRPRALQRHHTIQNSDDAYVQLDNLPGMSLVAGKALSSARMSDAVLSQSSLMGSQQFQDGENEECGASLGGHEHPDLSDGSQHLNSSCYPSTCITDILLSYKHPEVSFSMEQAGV
# T2 sequence (O94804 whole entry): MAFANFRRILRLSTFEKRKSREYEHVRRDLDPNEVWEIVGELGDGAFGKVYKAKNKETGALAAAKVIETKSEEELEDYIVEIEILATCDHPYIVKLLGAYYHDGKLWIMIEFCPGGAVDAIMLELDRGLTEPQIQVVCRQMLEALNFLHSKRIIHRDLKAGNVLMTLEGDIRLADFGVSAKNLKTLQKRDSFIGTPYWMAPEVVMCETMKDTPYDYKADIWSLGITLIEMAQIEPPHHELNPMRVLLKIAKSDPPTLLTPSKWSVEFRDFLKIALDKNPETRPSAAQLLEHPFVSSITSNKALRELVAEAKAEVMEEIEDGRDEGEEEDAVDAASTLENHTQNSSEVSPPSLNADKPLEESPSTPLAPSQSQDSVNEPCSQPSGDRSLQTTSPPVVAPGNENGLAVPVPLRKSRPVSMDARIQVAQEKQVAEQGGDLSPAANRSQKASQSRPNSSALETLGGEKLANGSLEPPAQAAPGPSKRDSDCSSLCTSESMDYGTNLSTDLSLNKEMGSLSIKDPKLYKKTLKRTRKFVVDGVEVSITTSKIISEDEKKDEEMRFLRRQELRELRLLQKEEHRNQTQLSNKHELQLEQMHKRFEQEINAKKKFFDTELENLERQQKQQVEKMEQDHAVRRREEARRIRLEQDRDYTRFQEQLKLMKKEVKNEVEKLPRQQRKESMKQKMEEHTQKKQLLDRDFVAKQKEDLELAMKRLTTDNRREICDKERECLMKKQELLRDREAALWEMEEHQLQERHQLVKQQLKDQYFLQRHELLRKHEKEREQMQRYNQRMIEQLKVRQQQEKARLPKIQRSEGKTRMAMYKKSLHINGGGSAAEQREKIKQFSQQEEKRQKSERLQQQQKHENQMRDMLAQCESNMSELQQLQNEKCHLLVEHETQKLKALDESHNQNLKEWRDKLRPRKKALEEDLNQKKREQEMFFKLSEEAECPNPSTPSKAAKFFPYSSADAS
# T1 sequence (P04626 23-1255): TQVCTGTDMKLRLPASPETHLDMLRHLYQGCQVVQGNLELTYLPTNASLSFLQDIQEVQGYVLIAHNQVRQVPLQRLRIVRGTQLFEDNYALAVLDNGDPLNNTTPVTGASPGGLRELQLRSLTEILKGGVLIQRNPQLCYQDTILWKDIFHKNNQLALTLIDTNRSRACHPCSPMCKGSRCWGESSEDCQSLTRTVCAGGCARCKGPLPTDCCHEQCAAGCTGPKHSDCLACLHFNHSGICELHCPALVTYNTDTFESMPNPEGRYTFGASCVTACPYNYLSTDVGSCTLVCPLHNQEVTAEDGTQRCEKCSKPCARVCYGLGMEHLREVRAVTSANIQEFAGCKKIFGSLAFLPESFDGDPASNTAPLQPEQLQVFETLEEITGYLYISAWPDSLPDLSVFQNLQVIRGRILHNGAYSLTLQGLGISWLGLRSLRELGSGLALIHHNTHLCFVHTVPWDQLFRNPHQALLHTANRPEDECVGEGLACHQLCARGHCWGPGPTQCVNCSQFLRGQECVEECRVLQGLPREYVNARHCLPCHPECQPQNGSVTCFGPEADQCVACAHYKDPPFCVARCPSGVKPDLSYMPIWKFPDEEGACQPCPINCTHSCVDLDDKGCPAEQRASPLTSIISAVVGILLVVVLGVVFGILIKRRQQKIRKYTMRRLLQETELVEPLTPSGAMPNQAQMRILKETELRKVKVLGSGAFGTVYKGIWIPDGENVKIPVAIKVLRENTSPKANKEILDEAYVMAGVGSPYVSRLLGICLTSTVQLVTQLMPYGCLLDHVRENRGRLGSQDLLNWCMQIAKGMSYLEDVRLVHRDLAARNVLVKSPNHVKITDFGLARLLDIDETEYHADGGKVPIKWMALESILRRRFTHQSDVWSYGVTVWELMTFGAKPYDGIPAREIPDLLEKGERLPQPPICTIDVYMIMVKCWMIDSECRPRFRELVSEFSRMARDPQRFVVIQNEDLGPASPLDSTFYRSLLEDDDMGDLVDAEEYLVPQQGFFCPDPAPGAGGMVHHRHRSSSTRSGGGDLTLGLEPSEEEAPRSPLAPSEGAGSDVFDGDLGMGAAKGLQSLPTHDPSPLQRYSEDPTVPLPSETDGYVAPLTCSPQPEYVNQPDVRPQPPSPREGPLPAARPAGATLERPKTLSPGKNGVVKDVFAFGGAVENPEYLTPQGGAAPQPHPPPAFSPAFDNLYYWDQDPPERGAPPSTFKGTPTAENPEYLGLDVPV
# T3 sequence (Q86UX6 whole entry): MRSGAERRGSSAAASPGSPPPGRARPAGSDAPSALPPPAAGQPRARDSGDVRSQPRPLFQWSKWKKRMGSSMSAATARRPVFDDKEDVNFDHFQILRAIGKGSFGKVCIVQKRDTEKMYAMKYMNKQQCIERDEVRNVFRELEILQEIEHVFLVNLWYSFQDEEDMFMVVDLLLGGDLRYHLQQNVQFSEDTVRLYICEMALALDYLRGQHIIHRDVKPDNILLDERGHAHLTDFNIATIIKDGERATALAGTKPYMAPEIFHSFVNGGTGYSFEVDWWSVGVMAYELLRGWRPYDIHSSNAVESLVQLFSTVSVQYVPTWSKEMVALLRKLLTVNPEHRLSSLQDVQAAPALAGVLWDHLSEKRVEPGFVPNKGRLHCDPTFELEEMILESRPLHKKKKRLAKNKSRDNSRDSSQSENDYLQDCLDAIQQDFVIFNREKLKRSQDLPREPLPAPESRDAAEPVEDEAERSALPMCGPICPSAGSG
smiles,measurement,setting,value
C=CC(=O)Nc1cc(-c2cc(-c3cc4c([nH]3)CCNC4=O)ccn2)ccc1OC(F)(F)F [compound 11],inhibition at 0.01 µM,[1]; 10 nM,10%
same,inhibition at 0.1 µM,[1]; 100 nM,5%
same,inhibition at 1 µM,[1]; 1000 nM,1%
same,inhibition at 0.01 µM,[2]; 10 nM,-2%
same,inhibition at 0.1 µM,[2]; 100 nM,6%
same,inhibition at 1 µM,[2]; 1000 nM,54%
same,inhibition at 0.01 µM,[3]; 10 nM,0%
same,inhibition at 0.1 µM,[3]; 100 nM,4%
same,inhibition at 1 µM,[3]; 1000 nM,1%
same,inhibition at 0.01 µM,[4]; 10 nM,6%
same,inhibition at 0.1 µM,[4]; 100 nM,1%
same,inhibition at 1 µM,[4]; 1000 nM,12%
same,inhibition at 0.01 µM,[5]; 10 nM,-11%
same,inhibition at 0.1 µM,[5]; 100 nM,2%
same,inhibition at 1 µM,[5]; 1000 nM,6%
same,inhibition at 0.01 µM,[6]; 10 nM,-3%
same,inhibition at 0.1 µM,[6]; 100 nM,2%
same,inhibition at 1 µM,[6]; 1000 nM,-2%
same,inhibition at 0.01 µM,[7]; 10 nM,-1%
same,inhibition at 0.1 µM,[7]; 100 nM,16%
same,inhibition at 1 µM,[7]; 1000 nM,59%
same,inhibition at 0.01 µM,[8]; PI3 Kinase (p110α/p65α)(h),3%
same,inhibition at 0.1 µM,[8]; PI3 Kinase (p110α/p65α)(h),0%
same,inhibition at 1 µM,[8]; PI3 Kinase (p110α/p65α)(h),1%
same,inhibition at 0.01 µM,[8]; PI3 Kinase (p110α/p85α)(h),-1%
same,inhibition at 0.1 µM,[8]; PI3 Kinase (p110α/p85α)(h),0%
same,inhibition at 1 µM,[8]; PI3 Kinase (p110α/p85α)(h),-1%
same,inhibition at 0.01 µM,[9]; 10 nM,13%
same,inhibition at 0.1 µM,[9]; 100 nM,0%
same,inhibition at 1 µM,[9]; 1000 nM,-5%
